Results published in paper PMC2918917 (New journal of chemistry = Nouveau journal de chimie, 2010).
Read-outs that look alike come from different tables or passages of the source. One block for each compound: values may come before it.

What was measured:
[1] = tested on: microRNA-mediated translational repression; details: cited from earlier work; for enhancement of microRNA-mediated translational repression: Drosophila melanogaster embryos extract
cultured cells = details: cited from earlier work
hDcp2 = hDcp2 (Homo sapiens, UniProt Q8IU60); assay: In vitro decapping of capped mRNA by hDcp2; format: biochemical; details: mRNA capped with D1 plus D2 mixture; preliminary results, unpublished work [21]
[2] = tested on: rabbit reticulocyte lysate (RRL) system; details: cited from earlier work
[3] = tested on: cultured mouse mammary cells; details: cited from earlier work
human DcpS = target: T1, human DcpS (Homo sapiens, UniProt Q96C86); assay: hDcpS assay: enzymatic hydrolysis of cap analogs monitored by RP HPLC; details: positive control; cleavage to m^7GMP and GDP; amount of DcpS adjusted
T1 sequence (Q96C86 1-337): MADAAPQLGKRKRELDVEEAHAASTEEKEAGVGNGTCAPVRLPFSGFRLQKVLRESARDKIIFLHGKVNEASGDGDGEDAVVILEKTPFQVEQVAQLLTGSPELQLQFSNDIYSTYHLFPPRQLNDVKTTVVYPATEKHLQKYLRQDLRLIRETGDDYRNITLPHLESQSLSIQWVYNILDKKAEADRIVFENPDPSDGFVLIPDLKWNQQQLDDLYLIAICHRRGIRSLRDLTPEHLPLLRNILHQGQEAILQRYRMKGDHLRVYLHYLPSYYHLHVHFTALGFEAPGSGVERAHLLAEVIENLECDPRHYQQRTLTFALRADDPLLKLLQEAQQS

Compound: C[n+]1cn(C2OC(COP(=O)([O-])OP(=O)(O)OP(=O)(O)OP(=O)(O)OP(=O)(O)OP(=O)(O)OCC3OC(n4cnc5c(=O)[nH]c(N)nc54)C(O)C3O)C(O)C2O)c2nc(N)[nH]c(=O)c21 (stereo not drawn) [m^7Gp6G]
enhancement of microRNA-mediated translational repression [1]: ~ 2 fold
effect on general cap-dependent translation [1]: neutral

Compound: COC1C(O)C(COP(=O)(O)OP(=O)(O)OP(O)(=S)OCC2OC(n3cnc4c(=O)[nH]c(N)nc43)C(O)C2O)OC1n1c[n+](C)c2c(=O)[nH]c(N)nc21 (stereo not drawn) [m2^7,2’-OGpppSG (D2)]
enhancement of microRNA-mediated translational repression [1]: 2 fold
enhancement of microRNA-mediated translational repression ([1]; listed as m2^7,2'-OGpppSG (D2)): ~ 2 fold
effect on general cap-dependent translation [1]: no change
effect on general cap-dependent translation ([1]; listed as m2^7,2'-OGpppSG (D2)): neutral

Compound: m2^7,3'-OGppCH2pG
half-life of capped mRNA transfected into cultured cells (cultured cells): prolonged half-life
translation of capped mRNA versus regular ARCA (cultured cells): translated even less efficiently

susceptibility of capped mRNA to in vitro decapping by hDcp2 (hDcp2): resistant
Compound: P1-(7,2'-O-dimethylguanosin-5'-y l ) P4-guanosin-5'-yl (3-thiotetraphosphate) [compound 2]

Compound: COC1C(COP(=O)([O-])OP(=O)(O)OP(=O)(O)OP(=O)(O)OP(=O)(O)OCC2OC(n3cnc4c(=O)[nH]c(N)nc43)C(O)C2O)OC(n2c[n+](C)c3c(=O)[nH]c(N)nc32)C1O (stereo not drawn) [m2^7,3'-OGp5G]
translation efficiency of mRNA capped with pentaphosphate analog [2]: not effective in promoting translation

Compound: CO[C@@H]1[C@H](O)[C@@H](COP(=O)(O)OP(O)(=S)OP(=O)(O)OC[C@H]2O[C@@H](n3cnc4c(=O)[nH]c(N)nc43)[C@H](O)[C@@H]2O)O[C@H]1n1c[n+](C)c2c(=O)[nH]c(N)nc21 (stereo partly drawn) [m2^7,2’-OGppSpG (D2)]
translation efficiency relative to m2^7,2’-OGpppG-capped mRNA [3]: 2.4

Compound: Cn1c[n+]([C@@H]2O[C@H](COP(=O)(O)OP(=O)([O-])OP(=O)(O)OC[C@H]3O[C@@H](n4cnc5c(=O)[nH]c(N)nc54)[C@H](O)[C@@H]3O)[C@@H](O)[C@H]2O)c2nc(N)[nH]c(=O)c21 [m^7GpppG]
time to complete cleavage by DcpS (human DcpS): less than 15 min
